{"source": "patent US10724101B2", "about": "“Biomarker SCNN1B for gastric cancer” (The Chinese University of Hong Kong, priority 2016, dated 2020)", "tested_on": "gastric cancer cell lines (AGS, KATOIII, MGC803, MKN28, MKN45 and SNU1) with silenced SCNN1B expression", "assay": "Demethylation treatment with 5-Aza; SCNN1B expression by semiquantitative RT-PCR", "format": "cell-based, human", "conditions": "10 μM 5-Aza for 5 days; six cell lines with silenced SCNN1B; FIG. 4", "method": "Semiquantitative RT-PCR was performed in a total volume of 25 μL reaction containing 1× Premix Ex Taq (Takara, Ohtsu, Japan) and 5-10 ng cDNA. The PCR program started with an initial denaturation at 95° C. for 10 min, followed by 27-35 cycles (95° C. for 30 sec, annealing temperature for 30 sec, and 72° C. for 30 sec) of amplification, with a final extension at 72° C. for 10 min. The PCR bands were visualized under ultraviolet light and photographed. The expression of the target gene was normalized by the expression of house-keeping gene β-actin, which served as an internal control.\nCells were seeded at a density of 1×10^5/100-mm dishes and grew for 24 hr. Cells were then treated with 10 μM 5-aza-2′-deoxycytidine (“5-Aza”) (Sigma-Aldrich) for 5 days. The 5-Aza was replenished every day. The gene expression of SCNN1B was evaluated using semiquantitative RT-PCR."}
{"molecule": "Nc1ncn([C@H]2C[C@H](O)[C@@H](CO)O2)c(=O)n1", "note": "[5-Aza, 5-aza-2′-deoxycytidine]", "values": [{"measurement": "expression of SCNN1B after demethylation treatment", "value": "Restored expression of SCNN1B"}]}
